Common to all, as to assay type: functional
One assay relates to Serratia sp. Description: Antibacterial activity in Serratia sp. infected patient assessed as mortality after 28 days.
The subject of a further assay is Klebsiella sp. Kind of assay: Antibacterial activity in Klebsiella sp. infected patient assessed as mortality after 28 days.
A further assay concerns Proteus sp. Description: Antibacterial activity in Proteus sp. infected patient assessed as mortality after 28 days.
A further assay relates to Escherichia coli. Kind of assay: Antibacterial activity in Escherichia coli infected patient assessed as mortality after 28 days.
Another assay has as its system Enterobacter sp. Description: Antibacterial activity in Enterobacter sp. infected patient assessed as mortality after 28 days.
Another assay deals with Pseudomonas aeruginosa. Description: Antibacterial activity in Pseudomonas aeruginosa infected patient assessed as mortality after 28 days.

As for `CO/N=C(\C(=O)N[C@@H]1C(=O)N2C(C(=O)[O-])=C(C[N+]3(C)CCCC3)CS[C@H]12)c1csc(N)n1` [CEFEPIME], the Activity in the assay with Serratia sp. amounted to 23.8%; in the assay with Klebsiella sp., 30.4%; with Proteus sp., 25%; with Escherichia coli it was 21.2%; in the assay on Enterobacter sp., 21.7%; with Pseudomonas aeruginosa, 39.1%.

Source of the values: ChEMBL document CHEMBL1151444, “Failure of current cefepime breakpoints to predict clinical outcomes of bacteremia caused by gram-negative organisms” (2007).
